Patent US4600705A, “Gonadoliberin derivatives containing a β-aspartyl group, a process for the preparation thereof and pharmaceutical preparations containing them” (Richter Gedeon Veyteszeti Gyar R.T., priority 1983, dated 1986)

Experiments:
[1] = tested on: sterlet and catfish mother fishes; experiment: spawning (roe deposition / ovulation) of sterlet and catfish mother fishes; type: in vivo; details: control group under the same conditions
cattle = experiment: pregnancy ratio of cattle, dosing simultaneously with insemination; type: in vivo; details: same dose (100 μg/dose)
blue and silver foxes = experiment: extra-seasonal rutting of blue and silver foxes; type: in vivo; details: single dose of 10 μg
female turkeys = experiment: brooding time of female turkeys; type: in vivo, turkey

Row | Substance | ovulation (in words) [1] | effect on the pregnancy ratio (in words) (cattle) | extra-seasonal rutting (blue and silver foxes) | brooding time (female turkeys)
1 | D-Phe^6, desGly^10 -LH-RH-ethylamide | no ovulation occurred |  |  | 
2 | native LH-RH: gonadoliberine, gonadotrop releasing hormone; native hormone used as comparator (QHWSYGLRPG; Gonadoliberin-1; UniProt P01148 24-33, looked up) |  | not efficacious | inefficacious | ineffective
